Experiments:
Type in all cases: in vivo
[1] = tested on: green peach aphid (Myzus persicae); assay: control of green peach aphid through systemic means, artificial diet under membrane; conditions: pipetted into aphid diet, mortality and fecundity after 3 days
Method: (§1) The analysis of synergism or antagonism between the mixtures or compositions was determined using Colby's equation.
For evaluating control of green peach aphid (Myzus persicae) through systemic means the test unit consisted of 96-well-microtiter plates containing liquid artificial diet under an artificial membrane.
The compounds or mixtures were formulated using a solution containing 75% water and 25% DMSO. Different concentrations of formulated compounds or mixtures were pipetted into the aphid diet, using a custom built pipetter, at two replications.
(§2) For experimental mixtures in these tests identical volumes of both mixing partners at the desired concentrations respectively, were mixed together.
After application, 5-8 adult aphids were placed on the artificial membrane inside the microtiter plate wells. The aphids were then allowed to suck on the treated aphid diet and incubated at 23±1° C., 50±5% RH for 3 days. Aphid mortality and fecundity was then visually assessed.
In this test the compound 1-2, and orysastrobin, and 5-chloro-7-(4-methylpiperidin-1-yl)-6-(2,4,6-trifluorophenyl)-[1,2,4]triazolo[1,5-a]pyrimidine (compound 2.2), and N-[2-(1,1,2,3,3,3-hexafluoropropoxy)-phenyl]-3-difluoromethyl-1-methyl-1H-pyrazole-4-carboxamide (compound 3.1), were used.

[2] = tested on: vetch aphid (Megoura viciae); assay: control of vetch aphid on broad bean leaf disks, 24-well microtiter plates; conditions: sprayed on leaf disks, mortality and fecundity after 5 days
Method: as §1
For evaluating control of vetch aphid (Megoura viciae) through contact or systemic means the test unit consisted of 24-well-microtiter plates containing broad bean leaf disks.
The compounds or mixtures were formulated using a solution containing 75% water and 25% DMSO. Different concentrations of formulated compounds or mixtures were sprayed onto the leaf disks at 2.5 μl, using a custom built micro atomizer, at two replications.
as §2
After application, the leaf disks were air-dried and 5-8 adult aphids placed on the leaf disks inside the microtiter plate wells. The aphids were then allowed to suck on the treated leaf disks and incubated at 23±1° C., 50±5% RH for 5 days. Aphid mortality and fecundity was then visually assessed.
In this test the compound 1-2, and N-(3′,4′-dichloro-5-fluorobiphenyl-2-yl)-3-difluoromethyl-1-methylpyrazole-4-carboxamide (compound 2.1) and 5-chloro-7-(4-methyl-piperidin-1-yl)-6-(2,4,6-trifluorophenyl)-[1,2,4]triazolo[1,5-a]pyrimidine (compound 2.2) were used.

[3] = tested on: boll weevil (Anthonomus grandis); assay: control of boll weevil, insect diet with eggs, 24-well microtiter plates; conditions: sprayed on insect diet, egg and larval mortality after 5 days
Method: as §1
For evaluating control of boll weevil (Anthonomus grandis) the test unit consisted of 24-well-microtiter plates containing an insect diet and 20-30 A. grandis eggs.
(§3) The compounds or mixtures were formulated using a solution containing 75% water and 25% DMSO. Different concentrations of formulated compounds or mixtures were sprayed onto the insect diet at 20 μl, using a custom built micro atomizer, at two replications.
as §2
After application, microtiter plates were incubated at 23±1° C., 50±5% RH for 5 days. Egg and larval mortality was then visually assessed.
In this test the compound 1-2, and prochloraz, pyraclostrobin, N-[2-(1,1,2,3,3,3-hexafluoropropoxy)-phenyl]-3-difluoromethyl-1-methyl-1H-pyrazole-4-carboxamide (compound 3.1), and N-(3′,4′,5′-trifluorobiphenyl-2-yl)-1-methyl-3-difluoromethyl-1H-pyrazole-4-carboxamide (compound 3.2), resp., were used.

[4] = tested on: tobacco budworm (Heliothis virescens); assay: control of tobacco budworm, insect diet with eggs, 96-well microtiter plates; conditions: sprayed on insect diet, egg and larval mortality after 5 days
Method: as §1
as §3, with “For evaluating control of tobacco budworm (Heliothis virescens) the test unit consisted of 96-well-microtiter plates containing an insect diet and 15-25 H. virescens eggs. The” for “The”, “10” for “20”
as §2
After application, microtiter plates were incubated at 28±1° C., 80±5% RH for 5 days. Egg and larval mortality was then visually assessed.
In this test the compound I-2, and prochloraz, and pyraclostrobin, resp., were used.

For CNC(=O)/C(=N/OC)c1ccccc1CO/N=C(C)/C(=N/OC)C(/C)=N/OC [orysastrobin, (2E)-2-(methoxyimino)-2-{2-[(3E,5E,6E)-5-(methoxyimino)-4,6-dimethyl-2,8-dioxa-3,7-diazanona-3,6-dien-1-yl]phenyl}-N-methylacetamide], the “Average Control %” value ([1]; 40 ppm) was 0%.

With CNC(=O)c1cc(C#N)cc(C)c1NC(=O)c1cc(Br)nn1-c1ncccc1Cl [I-2] the “Average Control %” value ([2]; 0.5 ppm) was 0%, the “Average Control %” value ([2]; 2.5 ppm) was 0% and the “Average Control %” value ([3]; 0.5 ppm) was 0%. For the same compound, the “Average Control %” value ([4]; 0.5 ppm) was 0%, the “Average Control %” value ([4]; 2.5 ppm) was 37.5% and the “Average Control %” value ([1]; 0.5 ppm) was 0%.

For Cn1cc(C(=O)Nc2ccc(F)cc2-c2ccc(Cl)c(Cl)c2)c(C(F)F)n1 [compound 2.1, N-(3′,4′-dichloro-5-fluorobiphenyl-2-yl)-3-difluoromethyl-1-methylpyrazole-4-carboxamide], the “Average Control %” value ([2]; 1000 ppm) was 0%.

In the case of Cn1cc(C(=O)Nc2ccccc2-c2cc(F)c(F)c(F)c2)c(C(F)F)n1 [compound 3.2, N-(3′,4′,5′-trifluorobiphenyl-2-yl)-1-methyl-3-difluoromethyl-1H-pyrazole-4-carboxamide], the “Average Control %” value ([3]; 200 ppm) is reported as 0%.

In the case of COC(=O)N(OC)c1ccccc1COc1ccn(-c2ccc(Cl)cc2)n1 [pyraclostrobin, methyl N-{2-[1-(4-chlorophenyl)-1/pyrazol-3-yloxymethyl]phenyl}(N-methoxy)carbamate], the “Average Control %” value ([3]; 40 ppm) is reported as 0%, the “Average Control %” value ([4]; 200 ppm) is reported as 0% and the “Average Control %” value ([1]; 8 ppm) is reported as 0%.
